Measurements as given in ChEMBL document CHEMBL1145354, “Benzopyran sulfonamides as KV1.5 potassium channel blockers” (Bioorg Med Chem Lett, 2007).
pIC50: −log10 of the molar value.

Key:
hERG (KCNH2) = hERG (KCNH2) (Homo sapiens, UniProt Q12809); assay: Inhibition of human ERG expressed in human embryonic kidney cells at 10 uM; assay type: cell-based; conditions: human embryonic kidney cells expressing human ERG
[1] = molecular target: Potassium voltage-gated channel subfamily A member 5 (Homo sapiens, UniProt P22460); assay: Inhibition of human Kv1.5 channel expressed in mouse L929 cells; assay type: cell-based
Sequence of Potassium voltage-gated channel subfamily A member 5 (P22460 whole entry): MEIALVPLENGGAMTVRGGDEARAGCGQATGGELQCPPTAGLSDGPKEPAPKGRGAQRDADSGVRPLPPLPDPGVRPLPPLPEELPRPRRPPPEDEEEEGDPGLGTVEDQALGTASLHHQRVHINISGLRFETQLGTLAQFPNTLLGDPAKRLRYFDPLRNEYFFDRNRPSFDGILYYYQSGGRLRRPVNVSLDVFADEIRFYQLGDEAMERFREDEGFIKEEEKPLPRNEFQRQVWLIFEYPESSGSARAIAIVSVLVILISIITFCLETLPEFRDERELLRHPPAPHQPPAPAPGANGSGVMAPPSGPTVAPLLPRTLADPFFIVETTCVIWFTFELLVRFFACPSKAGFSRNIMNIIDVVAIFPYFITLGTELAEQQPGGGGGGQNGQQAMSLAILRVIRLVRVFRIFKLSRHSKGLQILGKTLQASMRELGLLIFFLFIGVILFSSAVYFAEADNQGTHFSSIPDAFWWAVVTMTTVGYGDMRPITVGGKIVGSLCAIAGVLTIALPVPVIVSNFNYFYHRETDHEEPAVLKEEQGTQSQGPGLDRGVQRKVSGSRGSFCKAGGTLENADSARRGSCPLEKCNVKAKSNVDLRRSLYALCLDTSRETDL

Sequence of hERG (KCNH2) (Q12809 whole entry): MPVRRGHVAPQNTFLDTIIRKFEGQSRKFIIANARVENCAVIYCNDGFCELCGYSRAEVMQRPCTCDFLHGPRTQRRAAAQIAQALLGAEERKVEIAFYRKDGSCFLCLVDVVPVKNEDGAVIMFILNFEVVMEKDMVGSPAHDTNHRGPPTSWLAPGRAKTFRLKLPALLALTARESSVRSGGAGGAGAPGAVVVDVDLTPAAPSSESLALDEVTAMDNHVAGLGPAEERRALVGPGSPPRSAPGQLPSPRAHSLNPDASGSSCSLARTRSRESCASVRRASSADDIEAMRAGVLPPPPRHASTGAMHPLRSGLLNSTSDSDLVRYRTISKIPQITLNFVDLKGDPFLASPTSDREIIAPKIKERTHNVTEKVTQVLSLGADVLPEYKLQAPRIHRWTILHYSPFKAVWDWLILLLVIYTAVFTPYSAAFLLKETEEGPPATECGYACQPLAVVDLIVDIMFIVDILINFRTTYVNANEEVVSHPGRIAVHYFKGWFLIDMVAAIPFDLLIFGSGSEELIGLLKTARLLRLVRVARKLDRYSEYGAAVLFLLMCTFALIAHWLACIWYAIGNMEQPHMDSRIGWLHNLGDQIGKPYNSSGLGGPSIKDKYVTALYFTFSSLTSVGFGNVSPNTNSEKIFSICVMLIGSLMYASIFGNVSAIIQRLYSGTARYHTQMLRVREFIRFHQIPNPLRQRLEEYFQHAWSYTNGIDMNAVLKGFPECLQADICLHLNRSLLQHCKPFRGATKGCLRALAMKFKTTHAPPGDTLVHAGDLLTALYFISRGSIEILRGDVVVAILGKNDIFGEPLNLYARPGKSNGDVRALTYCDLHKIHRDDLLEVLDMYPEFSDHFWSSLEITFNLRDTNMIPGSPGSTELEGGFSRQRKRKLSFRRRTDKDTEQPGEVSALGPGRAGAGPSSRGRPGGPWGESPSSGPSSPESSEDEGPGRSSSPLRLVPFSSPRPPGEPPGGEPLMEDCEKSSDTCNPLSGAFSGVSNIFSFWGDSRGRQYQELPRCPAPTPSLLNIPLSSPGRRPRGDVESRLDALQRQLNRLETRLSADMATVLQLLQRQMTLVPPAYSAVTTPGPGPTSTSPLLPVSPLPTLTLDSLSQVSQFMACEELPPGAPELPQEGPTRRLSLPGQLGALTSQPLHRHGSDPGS

Row | SMILES | pIC50 [1] | inhibition at 10 µM (hERG (KCNH2))
1 | CCc1ccc(S(=O)(=O)N[C@@H]2c3cc(C(=O)N(CC)Cc4ccccc4F)ccc3OC(C)(C)[C@H]2O)cc1 | 6.77 | 7%
2 | CCc1ccc(S(=O)(=O)N[C@@H]2c3cc(C(=O)NCCc4ccccc4)ccc3OC(C)(C)[C@H]2O)cc1 | 6.59 | –
3 | CCc1ccc(S(=O)(=O)N[C@@H]2c3cc(C(=O)NCCc4ccccn4)ccc3OC(C)(C)[C@H]2O)cc1 | < 6.00 | –
4 | CC1(C)Oc2ccc(C(=O)NCCc3ccccc3)cc2[C@@H](NS(=O)(=O)c2ccccc2)[C@@H]1O | < 6.00 | –
5 | Cc1ccc(S(=O)(=O)N[C@@H]2c3cc(C(=O)NCCc4ccccc4)ccc3OC(C)(C)[C@H]2O)cc1 | 6.40 | –
6 | CCc1ccc(S(=O)(=O)N[C@H]2c3cc(C(=O)NCCc4ccccc4)ccc3OC(C)(C)[C@@H]2O)cc1 | < 6.00 | –
7 | CCc1ccc(S(=O)(=O)N[C@@H]2c3cc(C(=O)N(CC)[C@@H]4CCN(Cc5ccccc5)C4)ccc3OC(C)(C)[C@H]2O)cc1 | 6.68 | –
8 | CCc1ccc(S(=O)(=O)N[C@@H]2c3cc(C(=N)NCCc4ccccc4)ccc3OC(C)(C)[C@H]2O)cc1 | < 5.00 | –
9 | CCc1ccc(S(=O)(=O)N(Cc2ccccn2)[C@@H]2c3cc(C(=O)NCCc4ccccc4)ccc3OC(C)(C)[C@H]2O)cc1 | 6.92 | –
10 | CCc1ccc(S(=O)(=O)N[C@@H]2c3cc(C(=O)N4CCC[C@@H]4CNc4c(C)cccc4C)ccc3OC(C)(C)[C@H]2O)cc1 | 6.89 | –
11 | CC1(C)Oc2ccc(C(=O)NCCc3ccccc3)cc2[C@@H](NS(=O)(=O)c2ccc(F)cc2)[C@@H]1O | < 6.00 | –
12 | COc1ccc(S(=O)(=O)N[C@@H]2c3cc(C(=O)NCCc4ccccc4)ccc3OC(C)(C)[C@H]2O)cc1 | < 6.00 | –
13 | CCc1ccc(S(=O)(=O)N(Cc2cccnc2)[C@@H]2c3cc(C(=O)NCCc4ccccc4)ccc3OC(C)(C)[C@H]2O)cc1 | 6.89 | 61%
14 | CCc1ccc(S(=O)(=O)N(Cc2cnc[nH]2)[C@@H]2c3cc(C(=O)NCCc4ccccc4)ccc3OC(C)(C)[C@H]2O)cc1 | 6.55 | –
15 | CCc1ccc(S(=O)(=O)N(CC(C)(C)C)[C@@H]2c3cc(C(=O)NCCc4ccccc4)ccc3OC(C)(C)[C@H]2O)cc1 | 6.92 | –
16 | CCc1ccc(S(=O)(=O)N[C@@H]2c3cc(C(=O)Nc4cccc(OC)c4)ccc3OC(C)(C)[C@H]2O)cc1 | < 5.00 | –
17 | CCc1ccc(S(=O)(=O)N[C@@H]2c3cc(NC(=O)c4cccc(OC)c4)ccc3C[C@H]2O)cc1 | – | 21%
18 | CCc1ccc(S(=O)(=O)N[C@H]2c3cc(C(=O)N(CC)[C@@H]4CCN(Cc5ccccc5)C4)ccc3OC(C)(C)[C@@H]2O)cc1 | 6.66 | –
19 | CCc1ccc(S(=O)(=O)N[C@@H]2c3cc(C(=O)NCCc4c[nH]cn4)ccc3OC(C)(C)[C@H]2O)cc1 | < 5.00 | –
20 | CC1(C)Oc2ccc(C(=O)NCCc3ccccc3)cc2[C@@H](NS(=O)(=O)c2ccc(C(F)(F)F)cc2)[C@@H]1O | 6.70 | –
21 | CCc1ccc(S(=O)(=O)N[C@@H]2c3cc(S(=O)(=O)NCCc4ccccc4)ccc3OC(C)(C)[C@H]2O)cc1 | 6.29 | –
22 | CC1(C)Oc2ccc(C(=O)NCCc3ccccc3)cc2[C@@H](NS(=O)(=O)c2ccc([N+](=O)[O-])cc2)[C@@H]1O | < 6.00 | –
23 | CCc1ccc(S(=O)(=O)N[C@H]2c3cc(C(=O)N(CC)[C@H]4CCN(Cc5ccccc5)C4)ccc3OC(C)(C)[C@@H]2O)cc1 | 6.70 | 80%

Further compounds by rising pIC50 [1], results first:

Row | pIC50 [1] | SMILES | inhibition at 10 µM (hERG (KCNH2))
24 | 6.47 | Cc1cccc(S(=O)(=O)N[C@@H]2c3cc(C(=O)NCCc4ccccc4)ccc3OC(C)(C)[C@H]2O)c1 | –
25 | 6.49 | CCc1ccc(S(=O)(=O)N(CC(C)C)[C@@H]2c3cc(C(=O)NCCc4ccccc4)ccc3OC(C)(C)[C@H]2O)cc1 | –
26 | 6.54 | CCc1ccc(S(=O)(=O)N[C@@H]2c3cc(NC(=O)c4cccc(OC)c4)ccc3OC(C)(C)[C@H]2O)cc1 | 40%
27 | 6.55 | CCc1ccc(S(=O)(=O)N[C@@H]2c3cc(C(=O)N(C)c4ccccc4)ccc3OC(C)(C)[C@H]2O)cc1 | –
28 | 6.59 | CCc1ccc(S(=O)(=O)N[C@@H]2c3cc(C(=O)Nc4ccccc4)ccc3OC(C)(C)[C@H]2O)cc1 | –
29 | 6.59 | CCc1ccc(S(=O)(=O)N[C@H]2c3cc(C(=O)N4CCC[C@H]4CNc4c(C)cccc4C)ccc3OC(C)(C)[C@@H]2O)cc1 | –
30 | 6.62 | CCc1ccc(S(=O)(=O)N[C@@H]2c3cc(CNCCc4ccccc4)ccc3OC(C)(C)[C@H]2O)cc1 | –
31 | 6.77 | CCc1ccc(S(=O)(=O)N[C@@H]2c3cc(C(=O)N(CC)[C@H]4CCN(Cc5ccccc5)C4)ccc3OC(C)(C)[C@H]2O)cc1 | –
32 | 6.82 | CC1(C)Oc2ccc(C(=O)NCCc3ccccc3)cc2[C@@H](NS(=O)(=O)c2ccccc2OC(F)(F)F)[C@@H]1O | –
33 | 6.92 | CCc1ccc(S(=O)(=O)N[C@@H]2c3cc(C(=O)N4CCC[C@H]4CNc4c(C)cccc4C)ccc3OC(C)(C)[C@H]2O)cc1 | 9%
34 | 6.96 | CCc1ccc(S(=O)(=O)N[C@H]2CC(C)(C)Oc3ccc(C(=O)N4CCC[C@H]4CNc4c(C)cccc4C)cc32)cc1 | 51%
35 | 7.05 | CCc1ccc(S(=O)(=O)N[C@H]2c3cc(C(=O)N4CCC[C@@H]4CNc4c(C)cccc4C)ccc3OC(C)(C)[C@@H]2O)cc1 | –
36 | 7.10 | CCc1ccc(S(=O)(=O)N[C@@H]2c3cc(C(=O)n4nc(-c5ccccc5)cc4N)ccc3OC(C)(C)[C@H]2O)cc1 | 47%
37 | 7.11 | CCc1ccc(S(=O)(=O)N[C@@H]2c3cc(C(=O)N(CC)CCNc4ccccc4)ccc3OC(C)(C)[C@H]2O)cc1 | 39%
38 | 7.24 | CCCCN([C@@H]1c2cc(C(=O)NCCc3ccccc3)ccc2OC(C)(C)[C@H]1O)S(=O)(=O)c1ccc(CC)cc1 | 35%
